Experimental data reported in publication PMC6911004, “Fragment-based screening identifies molecules targeting the substrate-binding ankyrin repeat domains of tankyrase” (Scientific Reports, 2019).
Entries after “also recorded” stand apart in the source; their conditions may differ.

Columns and labels:
Type in all cases: binding
TNKS2 ARC4 (488–649) = molecular target: T1, TNKS2 ARC4 (488–649) (Homo sapiens, UniProt Q9H2K2); assay: Protein-observed 1H-15N HSQC NMR titration (chemical shift perturbation); settings: for 15N NMR / 15N HSQC chemical shift perturbations (CSPs): 15N-labelled TNKS2 ARC4
T1 construct: The cell was filled with TNKS2 ARC4 (488–649); His6-GST (cleaved yes); made in house; host or cells: E. coli BL21-CodonPlus (DE3)-RIL
T1 sequence (Q9H2K2 488-649): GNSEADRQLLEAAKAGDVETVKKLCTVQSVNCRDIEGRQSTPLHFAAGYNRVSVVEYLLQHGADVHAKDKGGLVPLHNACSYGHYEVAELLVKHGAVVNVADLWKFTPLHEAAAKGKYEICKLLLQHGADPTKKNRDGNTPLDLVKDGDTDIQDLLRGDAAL
Source text: We next tested validated hits from both the DSF and NMR screens against TNKS2 ARC4 using protein-observed NMR. This included 16 compounds in total: 14 fragments identified by DSF and confirmed to bind TNKS2 ARC5 by both relaxation-edited and waterLOGSY methods and two unique fragments identified by NMR and confirmed to bind TNKS2 ARC4 by both ligand-observed NMR methods. We used the 3BP2 TBM peptide as a positive control. To directly identify fragment binding sites on the ARC, we performed a full backbone and partial side-chain assignment of TNKS2 ARC4, doubly labelled with ^15N and ^13C isotopes. The assignment details have been reported elsewhere. […] The different binding regimes may distinguish primary interaction hotspots that are engaged robustly when a peptide is first recruited (slow exchange) from secondary binding sites in the ARC that become occupied once primary binding hotspots are engaged; these may be more dynamic (fast exchange).
We then titrated compounds against ^15N-labelled TNKS2 ARC4, initially at protein:compound ratios of 1:1 and 1:3. […] We confirmed that the CSPs were not caused by pH changes during the titration by measuring the pH of the peptide and fragment stocks (at 3 mM) in assay buffer. Consistent with TBM-competitive binding of fragments 3 and 5, we identified several peaks that shifted in both fragment and 3BP2 TBM peptide titrations. […] However, the solubility of fragments 3 and 5 in assay buffer limited the maximum concentration achievable, and so complete saturation was not reached. This confounded affinity measurements and more extensive analyses of the fragment binding sites by protein-observed NMR.
^15N-labelled TNKS2 ARC4 (488–649) (300 μM final concentration; 5 μL of 3 mM stock) in NMR buffer (45 μL, 25 mM HEPES-NaOH pH 7.5, 100 mM NaCl, 1 mM TCEP, 10% D2O) was used as the baseline sample. Peptide titration samples (Table 6) were prepared by diluting the 16-mer 3BP2 peptide with NMR buffer (45 μL), then adding TNKS2 ARC4 (300 μM final concentration; 5 μL of 3 mM stock). Separate samples were prepared for each concentration point. Fragment titration samples (Table 7) were prepared by diluting fragments in NMR buffer (25 mM HEPES-NaOH pH 7.5, 100 mM NaCl, 1 mM TCEP, 10% D2O) and backfilling with DMSO to keep a constant DMSO concentration of 5%. ^15N-labelled TNKS2 ARC4 (300 μM final concentration; 5 μL of 3 mM stock) was added. Protein with 5% DMSO alone was used as the baseline. Separate samples were prepared for each concentration point. ^1H-^15N HSQC spectra were acquired over 3 h, with 64 scans and a spectrum width of 16.00 ppm for ^1H and 29.00 ppm for ^15N. The pH of the peptide and fragment stocks (at 3 mM) was confirmed to exclude the possibility that peak shifts were due to changes in pH during the titration.
Peaks that shifted were picked manually in each spectrum. The chemical shifts for each peak were measured and exported into Microsoft Excel, where the change in chemical shift from baseline was calculated for hydrogen and nitrogen shifts. The average Euclidean distance shifted (d) was then calculated using Eq. 2, weighting the different nuclei:2 d=√{1/2[δH2+(α.δN2)]},whereα=0.14
Values of d were plotted against ligand concentration in GraphPad Prism, and fitted with Eq. 3:3 Δδobs=Δδmax{([P]t+[L]t+Kd)−[([P]t+[L]t+Kd)^2−4[P]t[L]t]^1/2/2[P]t
Kd values were calculated for each peak that shifted individually. The mean of all shifting peaks was then calculated to give an apparent Kd value.

TNKS2 ARC4 [1] = molecular target: T2, TNKS2 ARC4 (Homo sapiens, UniProt Q9H2K2); assay: T2 relaxation-edited ligand-observed NMR assay; settings: for T2 relaxation-edited: competition with 3BP2 TBM peptide: 3BP2 16-mer peptide 100 μM
T2 construct: The cell was filled with TNKS2 ARC4 (488–649); His6-GST; made in house; host or cells: E. coli
T2 sequence (Q9H2K2 488-649): T1 sequence (Q9H2K2 488-649)
Procedure: (§1) We next sought close structural analogues of hit fragments 3 and 5 to gain early insights into structure-activity relationships (SAR) and binding modes of hit fragments. We initially tested the analogues using both relaxation-edited and waterLOGSY NMR assays against TNKS2 ARC4 (Table 1), followed by protein-observed NMR if binding was detected in both ligand-observed NMR experiments.
Fragments were dispensed in duplicate into a 384-well plate (250 nL, 100 mM stock in DMSO). Wells were backfilled with DMSO (2.25 μL). Tankyrase ARC protein (47.5 μL in 25 mM HEPES, pH 7.5, 100 mM NaCl, 2 mM TCEP, 10% D2O; 20 μM final protein concentration in the assay) was added to the ‘protein’ samples; buffer only (47.5 μL) was added to the ‘compound-only’ samples. Solutions were transferred to 1.7 mm NMR tubes using a Gilson liquid handling system. ^1H NMR spectra were recorded, with the DMSO and water signals dampened. A relaxation spin filter was applied at 400 ms[65]. Data were processed using Bruker Topspin 3.14. Lines were broadened with LB = 3.0, and the baseline was corrected between 6.0–10.0 ppm. The average integral for all peaks between 6.0–10.0 ppm was calculated, and the difference between compound-only and compound-plus-protein samples was compared. A reduction in signal integrals of ≥15% was classified as a hit. For competitive experiments, 3BP2 16-mer peptide (100 μM) was added, and the spectra were recorded and processed as above. The variability in signal reduction in the relaxation-edited experiment was previously determined as approximately ± 10% (Liu et al., unpublished observations).

TNKS2 ARC4 [2] = molecular target: T2, TNKS2 ARC4; assay: WaterLOGSY NMR assay; settings: for waterLOGSY: wild-type TNKS2 ARC4 20 μM, negative NOE = binder
Procedure: as §1
Fragments were dispensed in duplicate into a 384-well plate (250 nL, 100 mM stock in DMSO). Wells were backfilled with DMSO (2.25 μL). Tankyrase ARC protein (47.5 μL in 25 mM HEPES-NaOH pH7.5, 100 mM NaCl, 2 mM TCEP, 10% D2O; 20 μM final protein concentration in the assay) was added to the samples containing protein; buffer only (47.5 μL) was added to the compound-only samples. Solutions were transferred to 1.7 mm NMR tubes using a Gilson liquid handling system. ^1H NMR spectra were recorded, with the DMSO signal dampened. The bulk water signal at 4.7 ppm was selectively inverted. Data were processed using Bruker Topspin 3.14[66].

[3] = TNKS2 ARC4 300 μM, fragment up to 4800 μM, 5% DMSO

Compound | 15N NMR / 15N HSQC chemical shift perturbations (CSPs) (TNKS2 ARC4 (488–649)) | NMR Kd (apparent, mean of shifting peaks) (TNKS2 ARC4 (488–649); [3]) | binding to TNKS2 ARC4 by ligand-observed NMR, in words (TNKS2 ARC4 [1]; DSF hit validation) | waterLOGSY (TNKS2 ARC4 [2]) | T2 relaxation-edited: competition with 3BP2 TBM peptide (TNKS2 ARC4 [1]) | waterLOGSY: competition with 3BP2 TBM peptide (TNKS2 ARC4 [2]) | Kd (TNKS2 ARC4 (488–649); TNKS2 ARC4 300 μM, fragment up to 4800 μM, 5% DMSO, read-out: NMR Kd (apparent, mean of shifting peaks)) [µM] | TNKS2 ARC4 binding of analogues, SAR summary in words (TNKS2 ARC4 [1]; relaxation-edited and waterLOGSY NMR) | waterLOGSY, compound alone (TNKS2 ARC4 [2]; no protein added)
O=C(NCc1ccco1)c1ccc(F)cc1 [compound 3] | significant CSPs; also recorded: substantial CSPs; also recorded: CSPs observed | no saturation | bound | negative NOE; also recorded: binding |  |  |  |  | 
O=C(NCc1ccc(F)cc1)c1ccc2nccnc2c1 [compound 5] | significant CSPs; also recorded: substantial CSPs; also recorded: CSPs observed | no saturation |  | negative NOE; also recorded: binding | competitive | peptide competition |  |  | 
O=C(NCc1ccco1)c1ccc2nccnc2c1 [compound 9] | substantial CSPs; also recorded: significant CSPs |  |  | one peak has negative NOE; also recorded: binding; also recorded: negative NOE signal | competitive |  | 1050 | preserved binding | no NOE
LPHLQRSPPDGQSFRSW [3BP2 16-mer peptide, 16-mer TBM peptide derived from 3BP2, W added for A280, N-terminus acetylated, C-terminus amide-capped; positive control, reference compound] | significant chemical shift perturbations |  |  |  |  |  |  |  | 
